In patent publication US20260306640A1, “TECHNOLOGIES TARGETING CELL STATES” (Auron Therapeutics, Inc., priority 2023, published 2026):

Target: T1, KAT2A (Homo sapiens, UniProt Q92830)
Experiment: KAT2A degradation, Western Blot (Jess), MOLM-13 cells
Type: cell-based
Design: degrader, Western blot
Conditions: MOLM-13 cells, KAT2A, 24 h, Western Blot, vs DMSO; read-out: KAT2A MOLM-13 DC50
Protocol: MOLM-13 cells or NCI-H1048 cells were used for Western Blot analysis of KAT2A degradation. KAT2B degradation can be measured in a similar manner with NCI-H1048 cells.
MOLM-13 cells were maintained at 37° C. in 5% CO2 and 90% humidity in RPMI 1640 supplemented with 20% fetal bovine serum (FBS) and 1× penicillin/streptomycin. Cells were plated in full media at 1-2 million cells/2 mL in a 6-well tissue culture treated plate with or without compounds for 24 h at 37° C. in 5% CO2.
MOLM-13 cells or NCI-H1048 cells were washed with PBS, then lysed with RIPA buffer containing 1×protease and phosphatase inhibitors (SantaCruz Biotechnologies Cat #sc-24948A). Protein was isolated by centrifugation at 12,000×g for 10 minutes at 4° C. and supernatant was collected. Protein was quantified via Bradford assay. Samples were diluted to 4 μg lysate in 16 μL RIPA buffer and then 4 μL of Jess Sample Buffer. Samples were heated at 95° C. for 5 minutes. Samples were loaded onto 12-230 kDa Jess™ Separation Module, 8×25 capillary cartridges (SM-W004, Biotechne). Antibodies loaded were: Primary antibody for KAT2A (GCN5L2 (C26A10) Rabbit mAb (3305, CST)) and for KAT2B (PCAF (C14G9)) Rabbit mAb (3378, CST) at 1:1000 and Anti-Rabbit Detection Module for Jess™ (Cat No #DM-001, Biotechne). Signal was detected by chemiluminescence.
DC50 values were determined from percent reduction of protein as compared to the DMSO control.

T1 sequence (Q92830 whole entry): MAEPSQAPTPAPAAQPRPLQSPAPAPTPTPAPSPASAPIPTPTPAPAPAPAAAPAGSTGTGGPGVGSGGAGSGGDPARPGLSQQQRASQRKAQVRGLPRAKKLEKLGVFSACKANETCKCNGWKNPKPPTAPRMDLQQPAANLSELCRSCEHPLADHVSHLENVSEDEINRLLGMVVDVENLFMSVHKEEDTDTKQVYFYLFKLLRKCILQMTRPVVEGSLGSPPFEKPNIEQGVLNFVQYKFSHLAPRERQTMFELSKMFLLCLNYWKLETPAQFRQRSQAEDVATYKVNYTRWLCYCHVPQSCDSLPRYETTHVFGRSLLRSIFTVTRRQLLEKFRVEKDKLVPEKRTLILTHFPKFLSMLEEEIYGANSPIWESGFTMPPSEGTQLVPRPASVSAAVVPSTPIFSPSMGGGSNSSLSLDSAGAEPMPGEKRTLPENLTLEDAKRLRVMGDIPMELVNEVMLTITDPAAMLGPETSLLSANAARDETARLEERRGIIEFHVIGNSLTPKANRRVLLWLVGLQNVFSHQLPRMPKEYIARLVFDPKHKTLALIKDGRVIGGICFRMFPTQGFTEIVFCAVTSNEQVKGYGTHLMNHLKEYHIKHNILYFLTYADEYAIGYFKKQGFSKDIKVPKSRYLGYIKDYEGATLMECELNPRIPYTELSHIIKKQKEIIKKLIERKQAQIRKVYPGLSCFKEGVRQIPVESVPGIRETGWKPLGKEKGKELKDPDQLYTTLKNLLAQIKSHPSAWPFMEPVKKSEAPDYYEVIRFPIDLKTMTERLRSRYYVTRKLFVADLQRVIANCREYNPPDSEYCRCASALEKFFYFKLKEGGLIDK

DC50 | SMILES
1 to 30 nM | CN1C[C@H](Nc2cnn(C)c(=O)c2Br)C[C@H](c2ccc(C(=O)N(C)c3cccc(Oc4cccc5c4C(=O)N(C4CCC(=O)NC4)C5=O)c3)cc2)C1 (some centres unmarked) [Compound 26]
< 1 nM | CN1C[C@H](Nc2cnn(C)c(=O)c2Br)C[C@H](c2ccc(C(=O)N3CCN(c4cccc5c4C(=O)N(C4CCC(=O)NC4=O)C5=O)CC3)cc2)C1 (some centres unmarked) [Compound 27]
< 1 nM | CN1C[C@H](Nc2cnn(C)c(=O)c2Br)C[C@H](c2ccc(C(=O)N3CC4(C3)CN(c3cccc5c3C(=O)N(C3CCC(=O)NC3=O)C5=O)C4)cc2)C1 (some centres unmarked) [Compound 29]
1 to 30 nM | CN1C[C@H](Nc2cnn(C)c(=O)c2Br)C[C@H](c2ccc(C(=O)N3CC(Oc4ccc5c(c4)C(=O)N(C4CCC(=O)NC4=O)C5=O)C3)cc2)C1 (some centres unmarked) [Compound 30]
1 to 30 nM | CN1C[C@H](Nc2cnn(C)c(=O)c2Br)C[C@H](c2ccc(C(=O)OCC3CCN(c4cccc5c4C(=O)N(C4CCC(=O)NC4=O)C5=O)CC3)cc2)C1 (some centres unmarked) [Compound 32]
< 1 nM | CN1C[C@H](Nc2cnn(C)c(=O)c2Br)C[C@H](c2ccc(C(=O)N(C)Cc3ccc(Oc4cccc5c4C(=O)N(C4CCC(=O)NC4=O)C5=O)cc3)cc2)C1 (some centres unmarked) [Compound 33]
1 to 30 nM | CN1C[C@H](Nc2cnn(C)c(=O)c2Br)C[C@H](c2ccc(C(=O)N(C)c3cccc(Oc4ccc5c(c4)C(=O)N(C4CCC(=O)NC4=O)C5=O)c3)cc2)C1 (some centres unmarked) [Compound 34]
< 1 nM | CN1C[C@H](Nc2cnn(C)c(=O)c2Br)C[C@H](c2ccc(CNCC3CCC(COc4cccc5c4C(=O)N(C4CCC(=O)NC4=O)C5=O)CC3)cc2)C1 (some centres unmarked) [Compound 35]
1 to 30 nM | CN1C[C@H](Nc2cnn(C)c(=O)c2Br)C[C@H](c2ccc(CN3CCC(Oc4cccc5c4C(=O)N(C4CCC(=O)NC4=O)C5=O)CC3)cc2)C1 (some centres unmarked) [Compound 36]
< 1 nM | CN1C[C@H](Nc2cnn(C)c(=O)c2Br)C[C@H](c2ccc(CN3CC4(C3)CN(c3ccc5c(c3)CN(C3CCC(=O)NC3=O)C5=O)C4)cc2)C1 (some centres unmarked) [Compound 37]
1 to 30 nM | CN1C[C@H](Nc2cnn(C)c(=O)c2Br)C[C@H](c2ccc(COc3cccc4c3C(=O)N(C3CCC(=O)NC3=O)C4=O)cc2)C1 (some centres unmarked) [Compound 38]
< 1 nM | CN1C[C@H](Nc2cnn(C)c(=O)c2Br)C[C@H](c2ccc(C(=O)NCCCCCCOc3cccc4c3C(=O)N(C3CCC(=O)NC3=O)C4=O)cc2)C1 (some centres unmarked) [Compound 41]
1 to 30 nM | CN1C[C@H](Nc2cnn(C)c(=O)c2Br)C[C@H](c2ccc(C(=O)NCCCCCCCCOc3cccc4c3C(=O)N(C3CCC(=O)NC3=O)C4=O)cc2)C1 (some centres unmarked) [Compound 42]
> 30 nM | CN1C[C@H](Nc2cnn(C)c(=O)c2Br)C[C@H](c2ccc(C(=O)NCCOCCn3cc(COCCOc4cccc5c4C(=O)N(C4CCC(=O)NC4=O)C5=O)nn3)cc2)C1 (some centres unmarked) [Compound 43]
1 to 30 nM | CN1C[C@H](Nc2cnn(C)c(=O)c2Br)C[C@H](c2ccc(C(=O)N(C)CCOc3cccc4c3C(=O)N(C3CCC(=O)NC3=O)C4=O)cc2)C1 (some centres unmarked) [Compound 44]
< 1 nM | CN1C[C@H](Nc2cnn(C)c(=O)c2Br)C[C@H](c2ccc(C(=O)N3CCC(COc4cccc5c4C(=O)N(C4CCC(=O)NC4=O)C5=O)CC3)cc2)C1 (some centres unmarked) [Compound 45]
1 to 30 nM | CN1C[C@H](Nc2cnn(C)c(=O)c2Cl)C[C@H](c2ccc(C(=O)N3CCN(Cc4ccc(C(=O)Nc5cccc6c5C(=O)N(C5CCC(=O)NC5=O)C6=O)cc4)CC3)cc2)C1 (some centres unmarked) [Compound 46]
> 30 nM | CN1C[C@H](Nc2nn(C)c(=O)c3cccnc23)C[C@H](c2ccc(C(=O)N3CCN(Cc4ccc(C(=O)Nc5cccc6c5C(=O)N(C5CCC(=O)NC5=O)C6=O)cc4)CC3)cc2)C1 (some centres unmarked) [Compound 47]
< 1 nM | CN(Cc1ccc(Oc2cccc3c2C(=O)N(C2CCC(=O)NC2=O)C3=O)cc1)Cc1ccc([C@H]2C[C@@H](Nc3cnn(C)c(=O)c3Br)CN(C)C2)cc1 (some centres unmarked) [Compound 48]
< 1 nM | CN1C[C@H](Nc2cnn(C)c(=O)c2Br)C[C@H](c2ccc(C(=O)N3CCN(Cc4ccc(Oc5cccc6c5C(=O)N(C5CCC(=O)NC5=O)C6=O)cc4)CC3)cc2)C1 (some centres unmarked) [Compound 49]
< 1 nM | CN1C[C@H](Nc2cnn(C)c(=O)c2Br)C[C@H](c2ccc(CN3CCN(Cc4ccc(Oc5cccc6c5C(=O)N(C5CCC(=O)NC5=O)C6=O)cc4)CC3)cc2)C1 (some centres unmarked) [Compound 50]

The remaining lines, values behind:

SMILES | DC50
CN1C[C@H](Nc2cnn(C)c(=O)c2Br)C[C@H](c2ccc(C(=O)N(C)c3ccc(Oc4cccc5c4C(=O)N(C4CCC(=O)NC4=O)C5=O)cc3)cc2)C1 (some centres unmarked) [Compound 1] | 1 to 30 nM
CN1C[C@H](Nc2cnn(C)c(=O)c2Br)C[C@H](c2ccc(C(=O)N(C)c3ccc(CCCOc4cccc5c4C(=O)N(C4CCC(=O)NC4=O)C5=O)cc3)cc2)C1 (some centres unmarked) [Compound 2] | 1 to 30 nM
CN1C[C@H](Nc2cnn(C)c(=O)c2Br)C[C@H](c2ccc(C(=O)NCCCCCCCCCC(=O)Nc3ccc4c(c3)CN(C3CCC(=O)NC3=O)C4=O)cc2)C1 (some centres unmarked) [Compound 3] | < 1 nM
CN1C[C@H](Nc2cnn(C)c(=O)c2Br)C[C@H](c2ccc(C(=O)NCCOCC(=O)Nc3ccc4c(c3)CN(C3CCC(=O)NC3=O)C4=O)cc2)C1 (some centres unmarked) [Compound 4] | > 30 nM
CN1C[C@H](Nc2cnn(C)c(=O)c2Br)C[C@H](c2ccc(C(=O)N3CCC(C#CC(=O)Nc4ccc5c(c4)CN(C4CCC(=O)NC4=O)C5=O)CC3)cc2)C1 (some centres unmarked) [Compound 5] | 1 to 30 nM
CN1C[C@H](Nc2cnn(C)c(=O)c2Br)C[C@H](c2ccc(C(=O)N3CCN(Cc4ccc(C(=O)Nc5cccc6c5C(=O)N(C5CCC(=O)NC5=O)C6=O)cc4)CC3)cc2)C1 (some centres unmarked) [Compound 6] | < 1 nM
CN1C[C@H](Nc2cnn(C)c(=O)c2Br)C[C@H](c2ccc(C(=O)N3CCN(CCOCCC(=O)Nc4cccc5c4C(=O)N(C4CCC(=O)NC4=O)C5=O)CC3)cc2)C1 (some centres unmarked) [Compound 7] | 1 to 30 nM
CN1C[C@H](Nc2cnn(C)c(=O)c2Br)C[C@H](c2ccc(C(=O)N(C)CCCCC#CCCCOc3cccc4c3C(=O)N(C3CCC(=O)NC3=O)C4=O)cc2)C1 (some centres unmarked) [Compound 8] | 1 to 30 nM
CN1C[C@H](Nc2cnn(C)c(=O)c2Br)C[C@H](c2ccc(C(=O)N3CCN(CC4CCN(c5cccc6c5C(=O)N(C5CCC(=O)NC5=O)C6=O)CC4)CC3)cc2)C1 (some centres unmarked) [Compound 9] | < 1 nM
CN1C[C@H](Nc2cnn(C)c(=O)c2Br)C[C@H](c2ccc(C(=O)N3CCC(C(=O)N4CCN(c5cccc6c5C(=O)N(C5CCC(=O)NC5=O)C6=O)CC4)CC3)cc2)C1 (some centres unmarked) [Compound 10] | 1 to 30 nM
CN1C[C@H](Nc2cnn(C)c(=O)c2Br)C[C@H](c2ccc(C(=O)NCCCCCCOCCOCC(=O)Nc3cccc4c3C(=O)N(C3CCC(=O)NC3=O)C4=O)cc2)C1 (some centres unmarked) [Compound 12] | 1 to 30 nM
CN1C[C@H](Nc2cnn(C)c(=O)c2Br)C[C@H](c2ccc(C(=O)N(C)C3CCN(c4cccc5c4C(=O)N(C4CCC(=O)NC4=O)C5=O)CC3)cc2)C1 (some centres unmarked) [Compound 13] | 1 to 30 nM
CN1C[C@H](Nc2cnn(C)c(=O)c2Br)C[C@H](c2ccc(C(=O)N3CCN(c4cccc5c4C(=O)N(C4CCC(=O)NC4=O)C5=O)CC3)cc2)C1 (some centres unmarked) [Compound 14] | < 1 nM
CN1C[C@H](Nc2cnn(C)c(=O)c2Br)C[C@H](c2ccc(C(=O)NC3CCN(c4cccc5c4C(=O)N(C4CCC(=O)NC4=O)C5=O)CC3)cc2)C1 (some centres unmarked) [Compound 15] | 1 to 30 nM
CN1C[C@H](Nc2cnn(C)c(=O)c2Br)C[C@H](c2ccc(C(=O)N3CCC(Oc4cccc5c4C(=O)N(C4CCC(=O)NC4=O)C5=O)CC3)cc2)C1 (some centres unmarked) [Compound 19] | 1 to 30 nM
CN1C[C@H](Nc2cnn(C)c(=O)c2Br)C[C@H](c2ccc(C(=O)N3CCN(Cc4ccc5c(c4)C(=O)N(C4CCC(=O)NC4=O)C5=O)CC3)cc2)C1 (some centres unmarked) [Compound 25] | < 1 nM

Target: T1, KAT2A
Experiment: KAT2A degradation, Western Blot (Jess), NCI-H1048 cells
Type: cell-based
Design: degrader, Western blot (Jess)
Conditions: NCI-H1048 cells, KAT2A, 24 h, Western Blot, vs DMSO; read-out: KAT2A NCI-H1048 DC50
Outline: (§1)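 NCI-H1048 cells grown in HITES medium with 5% FBS were treated with compounds for 24 h at 37° C. Lysates were run by capillary Western (Jess) with KAT2A or KAT2B antibodies and chemiluminescent detection. DC50 derived from percent protein reduction versus DMSO control.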

DC50 | SMILES
> 30 nM | CN1C[C@H](Nc2cnn(C)c(=O)c2Br)C[C@H](c2ccc(CN3CCN(c4cccc(OC5CCC(=O)NC5=O)c4)CC3)cc2)C1 (stereo partly drawn) [Compound 435, 3-(3-(4-(4-((3R,5R)-5-((5-bromo-1-methyl-6-oxo-1,6-dihydropyridazin-4-yl)amino)-1-methylpiperidin-3-yl)benzyl)piperazin-1-yl)phenoxy)piperidine-2,6-dione]
< 1 nM | Cc1cc(N2CCC3(CCN(c4ccc([C@H]5C[C@@H](Nc6cnn(C)c(=O)c6Br)CN(C)C5)cc4)CC3)CC2)ccc1C1CCC(=O)NC1=O (stereo partly drawn) [Compound 436, 3-(4-(9-(4-((3R,5R)-5-((5-bromo-1-methyl-6-oxo-1,6-dihydropyridazin-4-yl)amino)-1-methylpiperidin-3-yl)phenyl)-3,9-diazaspiro[5.5]undecan-3-yl)-2-methylphenyl)piperidine-2,6-dione]

Target: KAT2B (Homo sapiens, UniProt Q92831)
Experiment: KAT2B degradation, Western Blot (Jess), NCI-H1048 cells
Type: cell-based
Design: degrader, Western blot (Jess)
Conditions: NCI-H1048 cells, KAT2B, 24 h, Western Blot, vs DMSO; read-out: KAT2B NCI-H1048 DC50
Outline: as §1

Chain of KAT2B (Q92831 whole entry): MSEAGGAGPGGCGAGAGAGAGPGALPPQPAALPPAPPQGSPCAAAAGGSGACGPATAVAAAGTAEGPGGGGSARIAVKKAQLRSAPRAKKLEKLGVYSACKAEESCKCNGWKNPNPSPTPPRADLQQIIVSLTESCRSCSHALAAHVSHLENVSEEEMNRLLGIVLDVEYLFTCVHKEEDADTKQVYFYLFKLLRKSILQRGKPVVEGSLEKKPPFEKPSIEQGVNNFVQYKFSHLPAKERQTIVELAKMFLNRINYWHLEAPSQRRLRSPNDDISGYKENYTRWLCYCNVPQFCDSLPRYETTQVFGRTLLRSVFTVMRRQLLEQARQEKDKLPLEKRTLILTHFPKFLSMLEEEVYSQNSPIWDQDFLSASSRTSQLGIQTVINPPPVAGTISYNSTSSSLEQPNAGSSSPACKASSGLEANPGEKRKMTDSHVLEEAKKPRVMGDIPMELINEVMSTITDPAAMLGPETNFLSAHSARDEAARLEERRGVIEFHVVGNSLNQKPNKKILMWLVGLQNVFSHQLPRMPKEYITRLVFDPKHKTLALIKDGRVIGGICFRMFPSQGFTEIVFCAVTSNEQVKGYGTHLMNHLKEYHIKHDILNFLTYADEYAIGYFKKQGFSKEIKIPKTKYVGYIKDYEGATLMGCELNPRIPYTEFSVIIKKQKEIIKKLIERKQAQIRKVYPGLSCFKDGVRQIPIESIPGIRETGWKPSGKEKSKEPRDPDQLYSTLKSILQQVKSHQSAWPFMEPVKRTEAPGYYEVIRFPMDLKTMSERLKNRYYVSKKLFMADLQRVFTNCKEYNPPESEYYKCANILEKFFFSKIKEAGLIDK

DC50 | SMILES
> 30 nM | CN1C[C@H](Nc2cnn(C)c(=O)c2Br)C[C@H](c2ccc(CN3CCN(c4cccc(OC5CCC(=O)NC5=O)c4)CC3)cc2)C1 (stereo partly drawn) [Compound 435, 3-(3-(4-(4-((3R,5R)-5-((5-bromo-1-methyl-6-oxo-1,6-dihydropyridazin-4-yl)amino)-1-methylpiperidin-3-yl)benzyl)piperazin-1-yl)phenoxy)piperidine-2,6-dione]
1 to 30 nM | Cc1cc(N2CCC3(CCN(c4ccc([C@H]5C[C@@H](Nc6cnn(C)c(=O)c6Br)CN(C)C5)cc4)CC3)CC2)ccc1C1CCC(=O)NC1=O (stereo partly drawn) [Compound 436, 3-(4-(9-(4-((3R,5R)-5-((5-bromo-1-methyl-6-oxo-1,6-dihydropyridazin-4-yl)amino)-1-methylpiperidin-3-yl)phenyl)-3,9-diazaspiro[5.5]undecan-3-yl)-2-methylphenyl)piperidine-2,6-dione]
